According to patent publication US12612407B2, “Imidazo[2,1-f][1,2,4]triazin-4-amine derivatives as TLR7 agonist” (BEIGENE, LTD., priority 2020, dated 2026):

Target: T1, human TLR7 (Homo sapiens, UniProt Q9NYK1)
T1 construct: host or cells: HEK293 (HEK-Blue hTLR7)
T1 sequence (Q9NYK1 27-1049): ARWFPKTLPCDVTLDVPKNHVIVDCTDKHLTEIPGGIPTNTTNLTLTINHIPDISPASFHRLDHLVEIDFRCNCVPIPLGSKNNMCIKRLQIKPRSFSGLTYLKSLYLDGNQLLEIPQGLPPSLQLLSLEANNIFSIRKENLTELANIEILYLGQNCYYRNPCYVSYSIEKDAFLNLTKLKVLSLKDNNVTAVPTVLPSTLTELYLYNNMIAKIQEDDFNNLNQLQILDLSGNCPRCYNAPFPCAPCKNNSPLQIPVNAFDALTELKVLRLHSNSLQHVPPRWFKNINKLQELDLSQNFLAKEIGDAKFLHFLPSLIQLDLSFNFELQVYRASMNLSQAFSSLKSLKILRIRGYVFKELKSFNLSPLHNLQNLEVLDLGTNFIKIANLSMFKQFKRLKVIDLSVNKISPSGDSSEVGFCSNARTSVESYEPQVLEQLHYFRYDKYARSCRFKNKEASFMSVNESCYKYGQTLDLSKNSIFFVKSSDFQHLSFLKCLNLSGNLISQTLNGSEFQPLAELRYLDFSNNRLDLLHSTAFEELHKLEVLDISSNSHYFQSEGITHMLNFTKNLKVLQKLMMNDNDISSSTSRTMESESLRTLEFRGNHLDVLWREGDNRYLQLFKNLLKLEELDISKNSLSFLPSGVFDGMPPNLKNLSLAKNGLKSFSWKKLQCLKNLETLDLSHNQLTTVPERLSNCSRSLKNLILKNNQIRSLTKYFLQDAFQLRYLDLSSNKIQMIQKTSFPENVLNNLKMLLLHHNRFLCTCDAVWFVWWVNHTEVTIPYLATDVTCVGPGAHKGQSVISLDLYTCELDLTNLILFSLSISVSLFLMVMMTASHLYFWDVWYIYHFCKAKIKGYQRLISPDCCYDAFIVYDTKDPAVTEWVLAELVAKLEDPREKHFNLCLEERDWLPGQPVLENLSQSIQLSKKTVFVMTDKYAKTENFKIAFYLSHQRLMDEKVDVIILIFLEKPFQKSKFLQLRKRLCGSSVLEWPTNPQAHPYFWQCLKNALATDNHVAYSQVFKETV
Assay: HEK293-Blue hTLR7 Reporter Assay (QUANTI-BLUE, SEAP readout)
Format: cell-based
Conditions: HEK-Blue-hTLR7 cells, 24 hrs treatment, Table 1, B1-B232
Procedure, shortened: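 HEK-Blue-hTLR7 cells expressing NF-κB/AP-1-driven SEAP, 4×10^4 cells/well, treated 24 h at 37° C with increasing compound concentrations. Supernatant SEAP measured with Quanti-blue substrate (10-30 min, 37° C) at 620-655 nm; EC50 from sigmoidal dose-response fit.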

| SMILES | EC50 [nM] |
| --- | --- |
| CC[C@@H](C)Oc1nc(N)c2ncc(Cc3cnc(N4CCNCC4)c(C)c3)n2n1 [Compound B152, (R)-2-(sec-butoxy)-7-((5-methyl-6-(piperazin-1-yl)pyridin-3-yl)methyl)imidazo[2,1-f][1,2,4]triazin-4-amine] | 56 |
| CC[C@@H](C)Oc1nc(N)c2ncc(Cc3cnc(N4CCN(C(=O)CN(C)C)CC4)c(C)c3)n2n1 [Compound B153, (R)-1-(4-(5-((4-amino-2-(sec-butoxy)imidazo[2,1-f][1,2,4]triazin-7-yl)methyl)-3-methylpyridin-2-yl)piperazin-1-yl)-2-(dimethylamino)ethan-1-one] | 49 |
| CCC(C)Oc1nc(N)c2ncc(Cc3cnc(N4CCN(C(=O)CN(C)C)CC4)c(C)c3)n2n1 (stereo not shown) [Compound B155, 1-(4-(5-((4-amino-2-(sec-butoxy)imidazo[2,1-f][1,2,4]triazin-7-yl)methyl)-3-methylpyridin-2-yl)piperazin-1-yl)-2-(dimethylamino)ethan-1-one] | 8.3 |
| CCC(C)Oc1nc(N)c2ncc(Cc3cnc(N4CCN(C(=O)CNC)CC4)c(C)c3)n2n1 (stereo not shown) [Compound B156, 1-(4-(5-((4-amino-2-(sec-butoxy)imidazo[2,1-f][1,2,4]triazin-7-yl)methyl)-3-methylpyridin-2-yl)piperazin-1-yl)-2-(methylamino)ethan-1-one] | 9.7 |
| CC[C@H](C)Oc1nc(N)c2ncc(Cc3cnc(N4CCNCC4)c(C)c3)n2n1 [Compound B158, (S)-2-(sec-butoxy)-7-((5-methyl-6-(piperazin-1-yl)pyridin-3-yl)methyl)imidazo[2,1-f][1,2,4]triazin-4-amine] | 6.5 |
| CC[C@@H](C)Oc1nc(N)c2ncc(Cc3cnc(N4CCN(C(=O)CNC)CC4)c(C)c3)n2n1 [Compound B159, (R)-1-(4-(5-((4-amino-2-(sec-butoxy)imidazo[2,1-f] [1,2,4]triazin-7-yl)methyl)-3-methylpyridin-2-yl)piperazin-1-yl)-2-(methylamino)ethan-1-one] | 48 |
| CCCCOc1nc(N)c2ncc(Cc3cnc(N4CCC(NC)CC4)c(C)c3)n2n1 [Compound B161, 2-butoxy-7-((5-methyl-6-(4-(methylamino)piperidin-1-yl)pyridin-3-yl)methyl)imidazo[2,1-f][1,2,4]triazin-4-amine] | 11 |
| CCC(CC)Oc1nc(N)c2ncc(Cc3cnc(N4CCNCC4)c(C)c3)n2n1 [Compound B162, 7-((5-methyl-6-(piperazin-1-yl)pyridin-3-yl)methyl)-2-(pentan-3-yloxy)imidazo[2,1-f][1,2,4]triazin-4-amine] | 8 |
| CCCC(CC)Oc1nc(N)c2ncc(Cc3cnc(N4CCC(CN(C)C)CC4)c(C)c3)n2n1 (stereo not shown) [Compound B164, 7-((6-(4-((dimethylamino)methyl)piperidin-1-yl)-5-methylpyridin-3-yl)methyl)-2-(hexan-3-yloxy)imidazo[2,1-f][1,2,4]triazin-4-amine] | 4.1 |
| Cc1cc(Cc2cnc3c(N)nc(OC4CCCCC4)nn23)cnc1N1CCNCC1 [Compound B167, 2-(cyclohexyloxy)-7-((5-methyl-6-(piperazin-1-yl)pyridin-3-yl)methyl)imidazo[2,1-f][1,2,4]triazin-4-amine] | 497 |
| CCCCOc1nc(N)c2ncc(Cc3cnc(N4C[C@@H]5C[C@H]4CN5)c(C)c3)n2n1 [Compound B168, 7-((6-((1S,4S)-2,5-diazabicyclo[2.2.1]heptan-2-yl)-5-methylpyridin-3-yl)methyl)-2-butoxyimidazo[2,1-f][1,2,4]triazin-4-amine] | 124 |
| CCCCOc1nc(N)c2ncc(Cc3cnc(N4CCN(C(=O)CN(CC)CC)CC4)c(C)c3)n2n1 [Compound B170, 1-(4-(5-((4-amino-2-butoxyimidazo[2,1-f][1,2,4]triazin-7-yl)methyl)-3-methylpyridin-2-yl)piperazin-1-yl)-2-(diethylamino)ethan-1-one] | 29 |
| Cc1cc(Cc2cnc3c(N)nc(OC4CCCC4)nn23)cnc1N1CCNCC1 [Compound B172, 2-(cyclopentyloxy)-7-((5-methyl-6-(piperazin-1-yl)pyridin-3-yl)methyl)imidazo[2,1-f][1,2,4]triazin-4-amine] | 260 |
| COCC(C)Oc1nc(N)c2ncc(Cc3cnc(N4CCNCC4)c(C)c3)n2n1 (stereo not shown) [Compound B174, 2-((1-methoxypropan-2-yl)oxy)-7-((5-methyl-6-(piperazin-1-yl)pyridin-3-yl)methyl)imidazo[2,1-f][1,2,4]triazin-4-amine] | 48 |
| CCCCOc1nc(N)c2ncc(Cc3cnc(N4CCN(C(=O)CN(C)C)[C@@H](C)C4)c(C)c3)n2n1 [Compound B179, (S)-1-(4-(5-((4-amino-2-butoxyimidazo[2,1-f][1,2,4]triazin-7-yl)methyl)-3-methylpyridin-2-yl)-2-methylpiperazin-1-yl)-2-(dimethylamino)ethan-1-one] | 38 |

The remaining lines, values ahead:

| EC50 [nM] | SMILES |
| --- | --- |
| 6.3 | CCCC(C)Nc1nc(N)c2ncc(Cc3cnc(N4CCN(C(=O)CNC)CC4)c(C)c3)n2n1 (stereo not shown) [Compound B149, 1-(4-(5-((4-amino-2-(pentan-2-ylamino)imidazo[2,1-f][1,2,4]triazin-7-yl)methyl)-3-methylpyridin-2-yl)piperazin-1-yl)-2-(methylamino)ethan-1-one] |
| 2.5 | CCCC(C)Nc1nc(N)c2ncc(Cc3cnc(N4CCNCC4)c(C)c3)n2n1 (stereo not shown) [Compound B150, 7-((5-methyl-6-(piperazin-1-yl)pyridin-3-yl)methyl)-N2-(pentan-2-yl)imidazo[2,1-f][1,2,4]triazine-2,4-diamine] |
| 3 | CCCC(C)Nc1nc(N)c2ncc(Cc3cnc(N4CCN(C(=O)CN(C)C)CC4)c(C)c3)n2n1 (stereo not shown) [Compound B151, 1-(4-(5-((4-amino-2-(pentan-2-ylamino)imidazo[2,1-f][1,2,4]triazin-7-yl)methyl)-3-methylpyridin-2-yl)piperazin-1-yl)-2-(dimethylamino)ethan-1-one] |
| 1.6 | CCC[C@H](C)Oc1nc(N)c2ncc(Cc3cnc(N4CCN(C(=O)CNC)CC4)c(C)c3)n2n1 [Compound B154, (S)-1-(4-(5-((4-amino-2-(pentan-2-yloxy)imidazo[2,1-f][1,2,4]triazin-7-yl)methyl)-3-methylpyridin-2-yl)piperazin-1-yl)-2-(methylamino)ethan-1-one] |
| 25 | CCC[C@@H](C)Oc1nc(N)c2ncc(Cc3cnc(N4CCN(C(=O)CNC)CC4)c(C)c3)n2n1 [Compound B160, (R)-1-(4-(5-((4-amino-2-(pentan-2-yloxy)imidazo[2,1-f][1,2,4]triazin-7-yl)methyl)-3-methylpyridin-2-yl)piperazin-1-yl)-2-(methylamino)ethan-1-one] |
| 2.5 | CCCC(CC)Oc1nc(N)c2ncc(Cc3cnc(N4CCC(N(C)C)CC4)c(C)c3)n2n1 (stereo not shown) [Compound B163, 7-((6-(4-(dimethylamino)piperidin-1-yl)-5-methylpyridin-3-yl)methyl)-2-(hexan-3-yloxy)imidazo[2,1-f][1,2,4]triazin-4-amine] |
| 2.6 | CCCC(C)Nc1nc(N)c2ncc(Cc3cnc(N4CCC(NC)CC4)c(C)c3)n2n1 (stereo not shown) [Compound B166, 7-((5-methyl-6-(4-(methylamino)piperidin-1-yl)pyridin-3-yl)methyl)-N2-(pentan-2-yl)imidazo[2,1-f][1,2,4]triazine-2,4-diamine] |
| 2.9 | CCCC(CC)Oc1nc(N)c2ncc(Cc3cnc(N4CCN(C(=O)CN(C)C)CC4)c(C)c3)n2n1 (stereo not shown) [Compound B169, 1-(4-(5-((4-amino-2-(hexan-3-yloxy)imidazo[2,1-f][1,2,4]triazin-7-yl)methyl)-3-methylpyridin-2-yl)piperazin-1-yl)-2-(dimethylamino)ethan-1-one] |
| 3.3 | CCC(CC)Nc1nc(N)c2ncc(Cc3cnc(N4CCN(C(=O)CNC)CC4)c(C)c3)n2n1 [Compound B175, 1-(4-(5-((4-amino-2-(pentan-3-ylamino)imidazo[2,1-f][1,2,4]triazin-7-yl)methyl)-3-methylpyridin-2-yl)piperazin-1-yl)-2-(methylamino)ethan-1-one] |
| 8.6 | CCCC(CCO)Oc1nc(N)c2ncc(Cc3cnc(N4CCN(C(=O)CN(C)C)CC4)c(C)c3)n2n1 (stereo not shown) [Compound B176, 1-(4-(5-((4-amino-2-((1-hydroxyhexan-3-yl)oxy)imidazo[2,1-f][1,2,4]triazin-7-yl)methyl)-3-methylpyridin-2-yl)piperazin-1-yl)-2-(dimethylamino)ethan-1-one] |
